Experimental data taken from article PMC8113459, “Selective inhibition of cullin 3 neddylation through covalent targeting DCN1 protects mice from acetaminophen-induced liver toxicity” (Nature Communications, 2021).
Values joined by “and” are separate entries in the source; they are usually repeats but may differ in a detail not shown here. Equal values may be shown once.

Assays:
NRF2 protein = test: Western blot, NRF2 protein accumulation in cells; assay type: cell-based, human; conditions: 300 nM
Description: (§1) Western blotting was performed as described previously. Treated cells were lysed by RIPA buffer supplemented with protease inhibitor. The expression level of indicated proteins was examined by immunoblotting analysis and GAPDH was used as the loading control. Antibodies were purchased commercially: cullin 1 (sc-17775, 1:500 dilution) and cullin 2 (sc-166506, 1:500 dilution) from Santa Cruz Biotech (Santa Cruz, CA); cullin 4A (PA5-14542, 1:1000 dilution), cullin 4B (PA5-50647, 1:1000 dilution), and DCN3 (DCUN1D3, PA5-44000, 1:1000 dilution) from Thermo Fisher Scientific (Wayne, MI); cullin 3 (2759, 1:1000), NRF2 (12721, 1:1000 dilution), HO-1 (70081, 1:1000 dilution), and Bim (2819, 1:1000 dilution) from Cell Signaling Technology (Boston, MA); DCN1 (GWB-E3D700, 1:1000 dilution) from GenWay Biotech (San Diego, CA); and cullin 5 (A302-173A, 1:500 dilution) from Bethyl Labs (Montgomery, TX). Results are representative of two independent experiments.

KYSE70 cells = test: Cell viability assay (WST-8), KYSE70; assay type: cell-based, human; conditions: for cell viability relative to control: replicates
Description: (§2) Cell viability assay was performed as previously described. The effect of DCN1 inhibitors on cell growth was evaluated by a WST-8 [2-(2-methoxy-4-nitrophenyl)-3-(4-nitrophenyl)-5-(2,4-disulfophenyl)-2H-tetrazolium, monosodium salt assay (Dojindo Molecular Technologies, Inc). Cells (2000–3000 cells in each well) were seeded in 96-well tissue culture plates in medium (100 μL) and treated with serial dilution of DCN1 inhibitors for 3 days. At the end of incubation, WST-8 dye (20 μL) was added to each well and incubated for 1–3 h, then the absorbance was measured in a microplate reader (Molecular Devices) at 450 nm. Cell growth inhibition was evaluated as the ratio of the absorbance of the sample to that of the control. The values were inserted into Prism software, and the curves and the EC50 values were produced by Prism software.

[1] = Cell viability assay (WST-8), KYSE70; assay type: cell-based, human; conditions: human, KYSE70 cells, replicates, read-out: cell viability relative to control
Description: as §2

[2] = Cell viability assay (WST-8), HCT116; assay type: cell-based, human; conditions: human, HCT116 cells, replicates, read-out: cell viability relative to control
Description: as §2

HCT116 cells = test: Cell viability assay (WST-8), HCT116; assay type: cell-based, human; conditions: for cell viability relative to control: replicates
Description: as §2

DCN1 [3] = target: T1, DCN1 (Homo sapiens, UniProt Q96GG9); test: Competitive FP binding assay
Description: Competitive FP binding assay was performed as previously described. The IC50 and Ki values of DI-1548 and DI-1548DD were determined in competitive binding experiments. Mixtures of preincubated protein/probe complex solution in the assay buffer (196 μL) and compounds in DMSO (4 μL) were added into assay plates which were incubated at room temperature for 30 min with gentle shaking. The concentrations of DCN1 protein and fluorescent probe were 50 and 5 nM, respectively. […] FP values in millipolarization units were measured using the Infinite M-1000 plate reader (Tecan U.S., Research Triangle Park, NC) in Microfluor 1 96-well, black, round-bottom plates (Thermo Fisher Scientific, Waltham, MA) at an excitation wavelength of 485 nm and an emission wavelength of 530 nm. IC50 values were determined by nonlinear regression fitting of the competition curves using the dose–response inhibition equation (four parameters, variable slopes) included in the Prism/GraphPad software. Ki values were calculated using methods described previously.

neddylation of cullin 3 = test: Western blot, cullin 3 neddylation in cells of different tissue types (U2OS, THLE2, MDA-MB-231, KYSE70, HCT116); assay type: cell-based, human
Description: as §1

MDA-MB-231 cells = test: Cell viability assay (WST-8), MDA-MB-231; assay type: cell-based, human; conditions: for cell viability relative to control: replicates
Description: as §2

[4] = Cell viability assay (WST-8), MDA-MB-231; assay type: cell-based, human; conditions: human, MDA-MB-231 cells, replicates, read-out: cell viability relative to control
Description: as §2

[5] = Cell viability assay (WST-8), U2OS; assay type: cell-based, human; conditions: human, U2OS cells, replicates, read-out: cell viability relative to control
Description: as §2

U2OS cells = test: Cell viability assay (WST-8), U2OS; assay type: cell-based, human; conditions: replicates
Description: as §2

DCN1 [6] = target: T1, DCN1; test: Intact-protein mass spectrometric analysis, Method B (DCN1); assay type: binding; conditions: 3 h incubation, 100 nM protein
Description: Method B: Recombinant DCN1 or DCN3 protein (100 nM in 25 mM Tris 7.5, 200 mM NaCl, 1 mM DTT buffer) was incubated with 1.2-fold excess of the DCN1 inhibitors at 37 °C for 10 min, 1 h, or 3 h. Following incubation, the protein was analyzed by LC–MS (Agilent Q-TOF 6545) under the following conditions: fragmentor voltage, 300 V; skimmer voltage, 75 V; nozzle voltage, 100 V; sheath gas temperature, 350 °C; and drying gas temperature, 325 °C. MassHunter Qualitative Analysis software (Agilent) was used to analyze the data. Intact protein masses were obtained using the maximum entropy deconvolution algorithm. The mass spectrometry data in Supplementary Figs. 14–17 were generated by Method B.

T1 sequence (Q96GG9 whole entry): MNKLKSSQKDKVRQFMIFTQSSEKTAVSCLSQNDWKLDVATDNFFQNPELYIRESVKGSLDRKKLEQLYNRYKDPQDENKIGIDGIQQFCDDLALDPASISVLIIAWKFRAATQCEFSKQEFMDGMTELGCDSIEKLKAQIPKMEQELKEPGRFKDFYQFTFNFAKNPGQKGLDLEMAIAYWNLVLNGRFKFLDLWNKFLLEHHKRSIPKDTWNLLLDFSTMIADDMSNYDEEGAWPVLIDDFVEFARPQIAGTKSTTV

C=C(CN1CCOCC1)C(=O)NC[C@H](NC(=O)[C@@H](Cc1nc2ccc(C(C)C)cc2s1)NC(=O)CC)C1CCCCC1 [DI-1548DD]
accumulation of NRF2 protein (NRF2 protein): no obvious accumulation | EC50 (KYSE70 cells; Homo sapiens, KYSE-70, 72 h, cell line assigned from panel order, read-out: EC50, cell growth inhibition): > 1000 nM | cell viability relative to control (KYSE70 cells; conc 10, 72 h): 101.942 and 101.216 | cell viability relative to control (KYSE70 cells; conc 30, 72 h): 111.396 and 109.174 and 90.4505 | cell viability relative to control (KYSE70 cells; conc 100, 72 h): 115.736 and 126.65 and 80.7614 | cell viability relative to control (KYSE70 cells; conc 300, 72 h): 86.0914 and 84.7716 | cell viability relative to control (KYSE70 cells; conc 1000, 72 h): 63.3503 and 88.731 and 70.4569 | viability at 72 h ([1]; conc 10, 72 h): 98.7% | viability at 72 h ([1]; conc 300, 72 h): 88% | viability at 72 h ([2]; conc 3, 72 h): 96.9% | viability at 72 h ([2]; conc 10, 72 h): 107% | viability at 72 h ([2]; conc 100, 72 h): 87.8% | viability at 72 h ([2]; conc 1000, 72 h): 79.7% | EC50 (HCT116 cells; Homo sapiens, HCT-116, 72 h, cell line assigned from panel order, read-out: EC50, cell growth inhibition): > 1000 nM | cell viability relative to control (HCT116 cells; conc 3, 72 h): 101.869 and 103.551 | cell viability relative to control (HCT116 cells; conc 10, 72 h): 94.2056 and 90 | cell viability relative to control (HCT116 cells; conc 30, 72 h): 80.7477 and 101.215 and 108.939 | cell viability relative to control (HCT116 cells; conc 100, 72 h): 96.6355 and 107.727 | cell viability relative to control (HCT116 cells; conc 300, 72 h): 79.5327 and 97.5701 and 109.546 | cell viability relative to control (HCT116 cells; conc 1000, 72 h): 96.8224 and 90.3738 | times less potent than DI-1548 in binding to DCN1 (DCN1 [3]): > 1000 times | FP signal of the competitive binding curve (DCN1 [3]; Concentration (nM) 0.169351, duplicates): 48.4 and 48 | FP signal of the competitive binding curve (DCN1 [3]; Concentration (nM) 0.508053, duplicates): 47 and 44.7 | FP signal of the competitive binding curve (DCN1 [3]; Concentration (nM) 1.52416, duplicates): 42.8 and 45.5 | FP signal of the competitive binding curve (DCN1 [3]; Concentration (nM) 4.57247, duplicates): 46.4 and 45.6 | FP signal of the competitive binding curve (DCN1 [3]; Concentration (nM) 13.7174, duplicates): 45.7 | FP signal of the competitive binding curve (DCN1 [3]; Concentration (nM) 41.1523, duplicates): 43.9 and 44.9 | FP signal of the competitive binding curve (DCN1 [3]; Concentration (nM) 123.457, duplicates): 43.5 and 44.2 | FP signal of the competitive binding curve (DCN1 [3]; Concentration (nM) 370.37, duplicates): 42.9 and 41.1 | FP signal of the competitive binding curve (DCN1 [3]; Concentration (nM) 1111.11, duplicates): 36.2 and 35.7 | FP signal of the competitive binding curve (DCN1 [3]; Concentration (nM) 3333.33, duplicates): 28.3 and 29.7 | FP signal of the competitive binding curve (DCN1 [3]; Concentration (nM) 10000, duplicates): 20.5 and 22.6 | IC50 (DCN1 [3]; DCN1 50 nM, probe 5 nM, 30 min): 2880 nM | times less potent than DI-1548 and DI-1859, respectively, on cullin 3 neddylation (neddylation of cullin 3): > 300 times | effect on the neddylation of cullin 3 (neddylation of cullin 3; 100–300 nM): no significant effect | EC50 (MDA-MB-231 cells; Homo sapiens, MDA-MB-231, 72 h, cell line assigned from panel order, read-out: EC50, cell growth inhibition): > 1000 nM | cell viability relative to control (MDA-MB-231 cells; conc 10, 72 h): 111.264 and 113.448 | cell viability relative to control (MDA-MB-231 cells; conc 30, 72 h): 102.295 and 109.77 | cell viability relative to control (MDA-MB-231 cells; conc 100, 72 h): 112.459 and 97.8161 | cell viability relative to control (MDA-MB-231 cells; conc 300, 72 h): 97.7869 and 103.793 | cell viability relative to control (MDA-MB-231 cells; conc 1000, 72 h): 105.329 and 127.049 and 101.954 | viability at 72 h ([4]; conc 10, 72 h): 93.6% | viability at 72 h ([4]; conc 30, 72 h): 108% | viability at 72 h ([4]; conc 100, 72 h): 104% | viability at 72 h ([4]; conc 300, 72 h): 104% | viability at 72 h ([5]; conc 10, 72 h): 90.3% | viability at 72 h ([5]; conc 1000, 72 h): 87.9% | cell viability relative to control (U2OS cells; conc 10, 72 h): 109.342 and 93.2895 and 98.1579 | cell viability relative to control (U2OS cells; conc 30, 72 h): 118.158 and 95.5263 and 92.6316 | cell viability relative to control (U2OS cells; conc 100, 72 h): 108.684 and 93.421 and 101.974 | cell viability relative to control (U2OS cells; conc 300, 72 h): 103.684 and 90.921 and 92.2368 | cell viability relative to control (U2OS cells; conc 1000, 72 h): 95.1316 and 97.1053 and 98.2895 | covalent complex formation with DCN1 (DCN1 [6]): fails to form any detectable complex
